Legend:
[1] = tested on: human peripheral blood-derived monocytes differentiated into macrophages; test: Viability of macrophages in vitro in the presence of acetylsalicylic acid (propidium iodide, flow cytometry); conditions: 72 h incubation
Method: Moreover, cell viability tests are carried out on macrophages for various concentrations of acetylsalicylic acid (FIG. 6).
This method of analysis comprises the use of human peripheral blood-derived monocytes placed in culture in RPMI medium, to which is added M-CSF at 10 ng/ml, for 24 hours in order to differentiate them into macrophages. Acetylsalicylic acid is added to the culture medium in a final concentration of 1000 μM or 5000 μM.
Cell mortality is analyzed, after 72 hours of incubation, by flow cytometry by measuring the cytoplasmic incorporation of propidium iodide.
The aim of such a cell viability test carried out in vitro is to verify the harmfulness of the dose administered to the cells found in the wound, and preferably in the present case to macrophages, which are considered to be a type of effector cell in the healing of the lesion being studied.

[2] = tested on: diabetic mice (HFD); test: Kinetics of cell infiltration into the wound (exudate) of diabetic mice (HFD) treated with acetylsalicylic acid; type: in vivo; conditions: 1000 μM solution, D7 post-lesion, versus control diabetic mice
From the text: FIG. 7: Kinetics of cell infiltration into the wound of “control” mice and diabetic mice (HFD) treated with acetylsalicylic acid.
HFD mice are murine models for induced diabetes, produced with C57BL/6 mice of 8 weeks of age. These mice follow a high calorie (high-fat) diet for 16 weeks. […] Unlike db/db mice, the diabetic state in these animals is not of genetic origin. The mice of the “control” group for the HFD mice are mice on a standard diet, also known by the abbreviation “NC”.
The cells from the exudate are recovered from D1 post-lesion until no more exudate is secreted by the wound. In order to determine the kinetics of polymorphonuclear neutrophil infiltration, the cells from the exudate from the lesion are characterized by flow cytometry by immunolabeling relating to the membrane receptors Ly6G, 7/4 (for the polymorphonuclear cells) and F4/80 (for the macrophages). A total of 10 000 events is analyzed for each sample. All the results are given in the form of percentage expression.
FIG. 7 describes the kinetics of cell infiltration carried out on “control” diabetic mice or on those to which has been applied a solution of 1000 μM of acetylsalicylic acid.

[3] = tested on: diabetic mice (db/db); test: Kinetics of wound closure in diabetic mice (db/db) treated topically with acetylsalicylic acid; type: in vivo; conditions: for wound closure (time to closure): from D3 post-lesion, NaCl control diabetic mice 26 days
From the text: These animals are characterized by hyperglycemia, insulin resistance and hypertriglyceridemia, which makes these mice the first choice as models for diabetes of genetic origin. The mice of the “control” group for the db/db mice are heterozygous db/+mice.
(§1) The mouse is anesthetized by means of isoflurane (halogenated anesthetic gas). The dorsal part and the flanks of the mouse are shaved and disinfected and a circular excision of close to 1 cm^2 is made. The connective tissue at the interface of the muscle tissue is removed without damaging the muscle fascia. The skin is totally excised as far as the panniculus carnosus.
The wound thus created is protected by a device such as described in the patent applications filed by Laboratoires Urgo, FR 11 62295 and FR 11 62344, which enables both protection of the wound and observation and evaluation of the healing kinetics, and enables exudate to be collected.
The wound healing process is observed from 0 to 30 days post-lesion. Between 3 and 5 very high resolution standardized digital photographs are taken for each animal. The percentage wound closure is based on changes in surface area calculated for the same injury on the same mouse and for the indicated time points. Thus, the mean calculated for wound healing (as a percentage) over the 3 mice in a group is obtained independently and the statistics are calculated from 3 groups of 3 independent experiments.
as §1, with “As already described above, the mouse” for “The mouse”, “of isoflurane.” for “of isoflurane (halogenated anesthetic gas).”
In the meantime, the reference solution of acetylsalicylic acid is prepared at 5 mM. This solution will be used to prepare the solutions with concentrations of 100 μM, 200 μM, 300 μM, 1 mM, 2 mM, 2.9 mM, 4.8 mM and 5 mM.
Solutions with concentrations of 100 μM, 200 μM, 300 μM, 1 mM, 2 mM, 2.9 mM, 4.8 mM and 5 mM of acetylsalicylic acid are tested.
A volume of between 50 and 500 μl is taken off from each solution and placed in contact with the wound via a device such as described through the patent applications filed by Laboratoires Urgo, FR 11 62295 and FR 11 62344.
It is noteworthy that this placing of a predefined concentration of acetylsalicylic acid in contact with the site of healing is carried out starting from the third day post-lesion. Indeed, it is in this period that the delay in healing appears in the diabetic mice, compared to the “control” mice (FIGS. 1A and 1B). Moreover, in the context of treating diabetic patients, the treated wounds will already be formed and will be arrested in the inflammatory phase. No chronic wounds, and more particularly diabetic wounds, are treated as soon as they appear. Moreover, the inflammatory phase is an indispensable phase in healing, since it enables the damaged area to be cleaned and deterged by virtue of the infiltration of inflammatory cells such as polymorphonuclear neutrophils. It is therefore necessary to retain inflammation to initiate effective healing, and thus to not entirely block this phase. This is why treatment with acetylsalicylic acid is only proposed starting from D3 post-lesion.

With `CC(=O)Oc1ccccc1C(=O)O` [acetylsalicylic acid] as the compound, how does the cell toxicity ([1]; 1000 μM) read?
The cell toxicity was “no cell toxicity”.

What about the “reduction of cell viability” value ([1]; 5000 μM) of the same compound?
Its value is 20%.

What about the “number of cells infiltrating the site of the lesion” value [2] of the same compound?
Its value is “significant reduction”.

And the “effect on the healing kinetics compared with control diabetic mice” value ([3]; 100 μM solution, topical)?
Its value is “No effect whatsoever”.

What about the “wound closure (time to closure)” value ([3]; 300 μM solution, topical) of the same compound?
Its value is “around twenty”.

And the “resolution of inflammation compared to control diabetic mice” value ([3]; 300 μM, 1000 μM and 2000 μM solutions, topical, early phase D3 to D7 post-lesion)?
Its value is “very clear acceleration of resolution of inflammation”.

And the “wound closure (time to closure)” value ([3]; 1000 μM solution, topical)?
The value was “around twenty”.

What about the “effect on the healing kinetics compared with control diabetic mice” value ([3]; 5000 μM solution, topical) of the same compound?
Its value is “No effect whatsoever”.

And the “speed of wound closure (overall conclusion)” value ([3]; concentration of between 100 μM and 4800 μM, administered from D3 post-lesion)?
The value was “increased speed of wound closure”.

From patent US20150320772A1, “USE OF ACETYLSALICYLIC ACID TO PREVENT AND/OR TREAT DIABETIC WOUNDS” (LABORATOIRES URGO, priority 2012, published 2015)
